Measurements from ChEMBL document CHEMBL1201862, “PubChem BioAssay data set” (2004).
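Assay format: 96-well plates, 48-hour exposure. At the GI50, growth is halved.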 Active and inactive are the calls of the source. Cut-off read from the data, not from the text of the source: active = GI50 up to about 1.1 µM and inactive = higher.

Tests used:
Test in all cases: inhibition of tumour cell growth, NCI panel, 48 h
[1] = tested on: NCI-H23
[2] = tested on: RPMI-8226
[3] = tested on: U-251
[4] = tested on: SF-295
[5] = tested on: M14
[6] = tested on: COLO 205
[7] = tested on: K562
[8] = tested on: OVCAR-3
[9] = tested on: HOP-62
[10] = tested on: SR
[11] = tested on: UACC-62
[12] = tested on: Hs-578T
[13] = tested on: 786-0
[14] = tested on: EKVX
[15] = tested on: OVCAR-4
[16] = tested on: NCI/ADR-RES
[17] = tested on: SF-268
[18] = tested on: OVCAR-8
[19] = tested on: SK-OV-3
[20] = tested on: T47D

Row | Compound | GI50 [1] | GI50 [2] | GI50 [3] | GI50 [4] | GI50 [5] | GI50 [6] | GI50 [7] | GI50 [8] | GI50 [9] | GI50 [10] | GI50 [11] | GI50 [12] | GI50 [13] | GI50 [14] | GI50 [15] | GI50 [16] | GI50 [17] | GI50 [18] | GI50 [19] | GI50 [20]
1 | Cc1ccc(Nc2cn(COCc3ccccc3)c(=O)[nH]c2=O)cc1 | 25.5 µM (inactive) | > 100 µM (inactive) | > 100 µM (inactive) | 39.7 µM (inactive) | > 100 µM (inactive) | > 100 µM (inactive) | > 100 µM (inactive) | > 100 µM (inactive) | 29.4 µM (inactive) | > 100 µM (inactive) | 43.9 µM (inactive) | 24.9 µM (inactive) | 43.5 µM (inactive) | > 100 µM (inactive) | > 100 µM (inactive) | > 100 µM (inactive) | 27.8 µM (inactive) |  |  | 
2 | C/C(=N\NC(=S)NC(CCC(=O)O)C(=O)O)c1cnccn1 (stereo not drawn) | > 100 µM (inactive) | > 100 µM (inactive) | > 100 µM (inactive) | > 100 µM (inactive) | > 100 µM (inactive) | > 100 µM (inactive) | > 100 µM (inactive) | > 100 µM (inactive) | > 100 µM (inactive) | > 100 µM (inactive) | > 100 µM (inactive) |  | > 100 µM (inactive) | > 100 µM (inactive) | > 100 µM (inactive) |  | > 100 µM (inactive) | > 100 µM (inactive) | > 100 µM (inactive) | 
3 | CCOC(=O)N1CCN(c2ccc3ccc(N)nc3n2)CC1 | > 100 µM (inactive) | > 100 µM (inactive) | > 100 µM (inactive) | > 100 µM (inactive) | > 100 µM (inactive) | > 100 µM (inactive) | > 100 µM (inactive) | > 100 µM (inactive) | > 100 µM (inactive) | > 100 µM (inactive) | > 100 µM (inactive) | > 100 µM (inactive) | > 100 µM (inactive) | > 100 µM (inactive) | > 100 µM (inactive) | > 100 µM (inactive) | > 100 µM (inactive) | > 100 µM (inactive) | > 100 µM (inactive) | 
4 | Cc1cc2nc3c(C#N)c(-c4ccccc4)cc(Nc4cccc(C(F)(F)F)c4)n3c2cc1C | 5.25 µM (inactive) | 1.61 µM (inactive) |  | 7.19 µM (inactive) | 4.78 µM (inactive) | 4.17 µM (inactive) | 0.392 µM (active) | 2.21 µM (inactive) | 9.98 µM (inactive) |  |  |  | 4.4 µM (inactive) | 4.68 µM (inactive) | 5.28 µM (inactive) | 4.07 µM (inactive) | 6.97 µM (inactive) | 4.14 µM (inactive) | 6.1 µM (inactive) | 4.16 µM (inactive)
5 | N#Cc1c(-c2ccccc2)cc(-c2ccc(N)cc2)[nH]c1=O | > 100 µM (inactive) | > 100 µM (inactive) | > 100 µM (inactive) | > 100 µM (inactive) | > 100 µM (inactive) | > 100 µM (inactive) | > 100 µM (inactive) | > 100 µM (inactive) | > 100 µM (inactive) | > 100 µM (inactive) | > 100 µM (inactive) |  | > 100 µM (inactive) | > 100 µM (inactive) | > 100 µM (inactive) |  | > 100 µM (inactive) | > 100 µM (inactive) | > 100 µM (inactive) | 
6 | COC1OC(OC)C2C(c3c(C)cc(C)cc3C)=NOC12 (stereo not drawn) | > 100 µM (inactive) | > 100 µM (inactive) | 20.3 µM (inactive) | > 100 µM (inactive) | > 100 µM (inactive) | > 100 µM (inactive) | > 100 µM (inactive) | > 100 µM (inactive) | 2.13 µM (inactive) | > 100 µM (inactive) | > 100 µM (inactive) |  | > 100 µM (inactive) | > 100 µM (inactive) | > 100 µM (inactive) |  | > 100 µM (inactive) | > 100 µM (inactive) | > 100 µM (inactive) | 
7 | Cc1cccc(-c2cc(O)c3cccnc3n2)c1 | 2.79 µM (inactive) | 0.679 µM (active) | 0.449 µM (active) | 1.36 µM (inactive) | 0.555 µM (active) | 0.236 µM (active) | 0.0993 µM (active) | 0.301 µM (active) | 17.6 µM (inactive) | 0.0946 µM (active) | 0.292 µM (active) | 0.444 µM (active) | 0.569 µM (active) | 2.34 µM (inactive) | 24 µM (inactive) | 0.618 µM (active) | 59 µM (inactive) | 1.35 µM (inactive) | 0.569 µM (active) | 
8 | O=C1CCCC2=C1CC1=C(CCCC1=O)N2c1cccc2ccccc12 | 52.5 µM (inactive) | > 100 µM (inactive) | 61 µM (inactive) |  | > 100 µM (inactive) |  | 44 µM (inactive) | > 100 µM (inactive) |  | > 100 µM (inactive) | 64.1 µM (inactive) | 33.8 µM (inactive) | 57.1 µM (inactive) | > 100 µM (inactive) | > 100 µM (inactive) | > 100 µM (inactive) | 45.1 µM (inactive) | 69.2 µM (inactive) | > 100 µM (inactive) | 
